Measured values taken from patent publication US10947252B2, “Inhibitors of KEAP1-Nrf2 protein-protein interaction” (Janssen Pharmaceutica NV, priority 2018, dated 2021).
pEC50, pKd: −log10 of the molar value.

Experiments:
[1] = biological target: Kelch domain of human KEAP1 (321-624 aa) (Homo sapiens (Human), UniProt Q14145); experiment: KEAP1 KELCH ThermoFluor binding assay; conditions: KEAP Kelch […], 1,8-ANS, pH 7.0, average of results obtained, read-out: Tf Kd;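 further: Ligand-induced melting temperature shift of E. coli-expressed KEAP1 Kelch protein, Kd estimated from concentration-response curves of ΔTm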
[2] = tested on: Glo-Response ARE-luc2P HEK293 cell line; experiment: ARE luciferase reporter cell-based assay; conditions: Homo sapiens, HEK293, 24 h, average of results obtained;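 further: luciferase signal tracks Nrf2 activation of the ARE once compounds disrupt KEAP1-Nrf2 binding, read with One-Glo reagent, DMSO serving as low control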

Sequence of Kelch domain of human KEAP1 (321-624 aa) (Q14145 321-624): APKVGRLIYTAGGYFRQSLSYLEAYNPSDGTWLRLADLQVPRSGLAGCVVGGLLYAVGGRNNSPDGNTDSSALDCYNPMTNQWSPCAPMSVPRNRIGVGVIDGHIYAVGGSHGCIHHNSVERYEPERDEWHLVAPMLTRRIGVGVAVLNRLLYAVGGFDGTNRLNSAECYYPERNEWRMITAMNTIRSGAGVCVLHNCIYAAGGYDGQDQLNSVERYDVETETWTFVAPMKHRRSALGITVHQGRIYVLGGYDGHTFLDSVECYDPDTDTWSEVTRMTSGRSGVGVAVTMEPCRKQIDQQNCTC

Compound	pKd [1]	pEC50 [2]
Cc1ccc([C@@H](CC(=O)O)c2ccn3c(C(F)(F)F)nnc3c2C)nc1CN1CC2(COC2)Oc2ncccc2S1(=O)=O (single isomer, unassigned) [Example 494, (*S)-3-(6-((1′,1′-Dioxidospiro[oxetane-3,4′-pyrido[2,3-b][1,4,5]oxathiazepin]-2′(3′H)-yl)methyl)-5-methylpyridin-2-yl)-3-(8-methyl-3-(trifluoromethyl)-[1,2,4]triazolo[4,3-a]pyridin-7-yl)propanoic Acid]	> 9.00	6.24
CCn1nnc2c(C)c([C@H](c3cc(CN4CC5(CNC5)Oc5ncc(C)cc5S4(=O)=O)c(C)cn3)C(C)(C)C(=O)O)ccc21 (single isomer, unassigned) [Example 595, (*S)-3-(1-Ethyl-4-methyl-1H-benzo[d][1,2,3]triazol-5-yl)-2,2-dimethyl-3-(5-methyl-4-((8′-methyl-1′,1′-dioxidospiro[azetidine-3,4′-pyrido[2,3-b][1,4,5]oxathiazepin]-2′(3′H)-yl)methyl)pyridin-2-yl)propanoic Acid]	8.37	6.86
CC[C@@H]1CN(Cc2cc(C(CC(=O)O)c3ccn4c(C(F)F)nnc4c3C)ccc2C)S(=O)(=O)c2cccnc2O1 (mixture of isomers) [Example 463, 3-(3-(Difluoromethyl)-8-methyl-[1,2,4]triazolo[4,3-a]pyridin-7-yl)-3-(3-(((R)-4-ethyl-1,1-dioxido-3,4-dihydro-2H-pyrido[2,3-b][1,4,5]oxathiazepin-2-yl)methyl)-4-methylphenyl)propanoic Acid]	> 9.00	7.56
Cc1ccc([C@H](c2ccn3c(C(F)(F)F)nnc3c2C)C(C)(C)C(=O)O)cc1CN1CC2(CCOCC2)Oc2nc(N[C@H](C)C(C)(C)O)c(C)cc2S1(=O)=O (single isomer, unassigned) [Example 124, (*R)-3-(3-((7′-(((R)-3-Hydroxy-3-methylbutan-2-yl)amino)-8′-methyl-1′,1′-dioxido-2,3,5,6-tetrahydrospiro[pyran-4,4′-pyrido[2,3-b][1,4,5]oxathiazepin]-2′(3′H)-yl)methyl)-4-methylphenyl)-2,2-dimethyl-3-(8-methyl-3-(trifluoromethyl)-[1,2,4]triazolo[4,3-a]pyridin-7-yl)propanoic Acid]	> 9.00	7.54
Cc1cnc2c(c1)S(=O)(=O)N(Cc1nc([C@@H](CC(=O)O)c3ccn4c(C(F)(F)F)nnc4c3C)ccc1C)C[C@H]1CCCCN21 (single isomer, unassigned) [Example 491, (*S)-3-(8-Methyl-3-(trifluoromethyl)-[1,2,4]triazolo[4,3-a]pyridin-7-yl)-3-(5-methyl-6-(((*R)-3-methyl-5,5-dioxido-7,7a,8,9,10,11-hexahydro-6H-dipyrido[2,1-d:2′,3′-f][1,2,5]thiadiazepin-6-yl)methyl)pyridin-2-yl)propanoic Acid]	> 9.00	8.26
Cc1ccc([C@H](CC(=O)O)c2ccc3c(nnn3CC3CC3)c2C)cc1CN1CC2(COC2)Oc2ncccc2S1(=O)=O (single isomer, unassigned) [Example 69, (*S)-3-(1-(Cyclopropylmethyl)-4-methyl-1H-benzo[d][1,2,3]triazol-5-yl)-3-(3-((1′,1′-dioxidospiro[oxetane-3,4′-pyrido[2,3-b][1,4,5]oxathiazepin-2′(3′H)-yl)methyl)-4-methylphenyl)propanoic Acid]	9.80	7.55
Cc1ccc(C(CC(=O)O)c2ccn3c(C(F)F)nnc3c2C)cc1CN1C[C@H]2COCCN2c2ncccc2S1(=O)=O (stereo in doubt) [Example 460, 3-(3-(Difluoromethyl)-8-methyl-[1,2,4]triazolo[4,3-a]pyridin-7-yl)-3-(3-(((*S)-5,5-dioxido-7a,8,10,11-tetrahydro-[1,4]oxazino[3,4-d]pyrido[2,3-f][1,2,5]thiadiazepin-6(7H)-yl)methyl)-4-methylphenyl)propanoic Acid]	8.56	6.92
Cc1cnc2c(c1)S(=O)(=O)N(Cc1cc([C@@H](c3ccn4c(C(F)(F)F)nnc4c3C)C(C)(C)C(=O)O)ccc1C)C[C@@]1(CCOC1)O2 (single isomer, unassigned) [Example 384, (*S)-2,2-Dimethyl-3-(4-methyl-3-(((*R)-8′-methyl-1′,1′-dioxido-4,5-dihydro-2H-spiro[furan-3,4′-pyrido[2,3-b][1,4,5]oxathiazepin]-2′(3′H)-yl)methyl)phenyl)-3-(8-methyl-3-(trifluoromethyl)-[1,2,4]triazolo[4,3-a]pyridin-7-yl)propanoic Acid]	6.61	6.82
Cc1ccc([C@@H](CC(=O)O)c2ccn3c(C(F)F)nnc3c2C)cc1CN1CC2(CC2)Oc2ncc(F)cc2S1(=O)=O (single isomer, unassigned) [Example 528, (*R)-3-(3-(Difluoromethyl)-8-methyl-[1,2,4]triazolo[4,3-a]pyridin-7-yl)-3-(3-((8′-fluoro-1′,1′-dioxidospiro[cyclopropane-1,4′-pyrido[2,3-b][1,4,5]oxathiazepin]-2′(3′H)-yl)methyl)-4-methylphenyl)propanoic Acid]	> 9.00	6.63
Cc1ccc([C@H](c2ccn3c(C(F)(F)F)nnc3c2C)C(C)(C)C(=O)O)nc1CN1CC2(CC2)Oc2nc(OCCN3CCCC3)c(C)cc2S1(=O)=O (single isomer, unassigned) [Example 633, (*R)-2,2-Dimethyl-3-(8-methyl-3-(trifluoromethyl)-[1,2,4]triazolo[4,3-a]pyridin-7-yl)-3-(5-methyl-6-((8′-methyl-1′,1′-dioxido-7′-(2-(pyrrolidin-1-yl)ethoxy)spiro[cyclopropane-1,4′-pyrido[2,3-b][1,4,5]oxathiazepin]-2′(3′H)-yl)methyl)pyridin-2-yl)propanoic Acid]	5.65	5.76
Cc1ccc([C@@H](CC(=O)O)c2ccn3c(C(F)(F)F)nnc3c2C)cc1CN1C[C@H]2CCCCN2c2ncccc2S1(=O)=O (single isomer, unassigned) [Example 273, (*R)-3-(3-(((*R)-5,5-Dioxido-7,7a,8,9,10,11-hexahydro-6H-dipyrido[2,1-d:2′,3′-f][1,2,5]thiadiazepin-6-yl)methyl)-4-methylphenyl)-3-(8-methyl-3-(trifluoromethyl)-[1,2,4]triazolo[4,3-a]pyridin-7-yl)propanoic Acid]	> 9.00	7.59
Cc1ccc([C@@H](CC(N)=O)c2ccn3c(C(F)(F)F)nnc3c2C)cc1CN1C[C@@H]2CCCCN2c2ncccc2S1(=O)=O (single isomer, unassigned) [Example 549, (*R)-3-(3-(((*S)-5,5-Dioxido-7,7a,8,9,10,11-hexahydro-6H-dipyrido[2,1-d:2′,3′-f][1,2,5]thiadiazepin-6-yl)methyl)-4-methylphenyl)-3-(8-methyl-3-(trifluoromethyl)-[1,2,4]triazolo[4,3-a]pyridin-7-yl)propanamide]	4.07	< 4.70
Cc1ccc([C@H](CC(=O)O)c2ccn3c(C(F)(F)F)nnc3c2C)nc1CN1C[C@@H]2CCCCN2c2ncc(C#N)cc2S1(=O)=O (single isomer, unassigned) [Example 37, (*R)-3-(6-(((*S)-3-Cyano-5,5-dioxido-7,7a,8,9,10,11-hexahydro-6H-dipyrido[2,1-d:2′,3′-f][1,2,5]thiadiazepin-6-yl)methyl)-5-methylpyridin-2-yl)-3-(8-methyl-3-(trifluoromethyl)-[1,2,4]triazolo[4,3-a]pyridin-7-yl)propanoic Acid]	> 9.00	7.59
